Assays:
Format in all cases: cell-based, human
CXCL8 = CXCL8 (IL-8) production in LPS-stimulated PMA-differentiated U937 cells (ELISA)
Experimental: (§1) EXAMPLE. […] Cells. The human monocytic cell line U937 was obtained from the American Type Culture Collection (ATCC, Rockville, Md.). PBMCs from COPD patients were obtained from Brompton hospital and separated by AccuSPIN (Sigma-Aldrich). […] U937 cells were differentiated into adherent macrophage-like morphology by exposure to PMA (50 ng/ml) for 48 h in complete growth medium. Cell viability was assessed microscopically by trypan blue staining. Cell toxicity was determined by MTT assay as needed. This study was approved by the ethics committee of the Royal Brompton Hospitals, and all subjects gave written informed consent. Cytokine ELISA. TNFα and IL-8 concentrations in the supernatant of cell cultures were determined by sandwich ELISA according to the manufacturer's instructions (R&D Systems Europe, Abingdon, UK). Statistical analysis. The results were expressed as the mean±SEM. Comparisons of data in two groups were performed using the Student's t test or the Wilcoxon signed rank test. Multiple comparisons were made by one-way ANOVA with post hoc test (Dunnett's) as appropriate. The difference was considered significant at p<0.05. […] Anti-inflammatory effects of solithromycin in U937 cells.

TNFα = TNFα production in LPS-stimulated PMA-differentiated U937 cells (ELISA)
Experimental: as §1

MMP9 = MMP9 activity in PMA-stimulated U937 cells (gelatin zymography)
Experimental: EXAMPLE. […] Cells. The human monocytic cell line U937 was obtained from the American Type Culture Collection (ATCC, Rockville, Md.). PBMCs from COPD patients were obtained from Brompton hospital and separated by AccuSPIN (Sigma-Aldrich). […] U937 cells were differentiated into adherent macrophage-like morphology by exposure to PMA (50 ng/ml) for 48 h in complete growth medium. Cell viability was assessed microscopically by trypan blue staining. Cell toxicity was determined by MTT assay as needed. This study was approved by the ethics committee of the Royal Brompton Hospitals, and all subjects gave written informed consent. Zymography. MMP9 enzyme activity was measured by gelatin zymography. […] After electrophoresis, gels were incubated and rinsed with Novex® zymogram renaturing buffer (Invitrogen) for 30 min at room temperature. The gels were then rinsed in Novex® zymogram developing buffer (Invitrogen) for 30 min at room temperature prior to overnight incubation in the developing buffer at 37° C. After incubation, the gels were stained using a Colloidal Blue Staining Kit (Invitrogen) to visualize the zymogen bands. Statistical analysis. The results were expressed as the mean±SEM. Comparisons of data in two groups were performed using the Student's t test or the Wilcoxon signed rank test. Multiple comparisons were made by one-way ANOVA with post hoc test (Dunnett's) as appropriate. The difference was considered significant at p<0.05.

`CC[C@H]1OC(=O)[C@H](C)C(=O)[C@H](C)[C@@H](O[C@@H]2O[C@H](C)C[C@H](N(C)C)[C@H]2O)[C@](C)(OC)C[C@@H](C)C(=O)[C@H](C)[C@H]2N(CCCCn3cnc(-c4cccnc4)c3)C(=O)O[C@]12C` [Telithromycin] was tested, and the “effect on CXCL8 production” value (CXCL8; at 100 μM) was “did not inhibit”, the “effect on TNFα production” value (TNFα; at 100 μM) was “did not inhibit” and the IC50 (MMP9; Homo sapiens, U-937) was 97.9 µM.
With `CC[C@H]1OC(=O)[C@H](C)[C@@H](O[C@H]2C[C@@](C)(OC)[C@@H](O)[C@H](C)O2)[C@H](C)[C@@H](O[C@@H]2O[C@H](C)C[C@H](N(C)C)[C@H]2O)[C@](C)(O)C[C@@H](C)C(=O)[C@H](C)[C@@H](O)[C@]1(C)O` [erythromycin] the “effect on IL-8 production” value (CXCL8; concentration not given) was “did not inhibit”, the “effect on TNFα production” value (TNFα; concentration not given) was “did not inhibit” and the “effect on MMP9 activity” value (MMP9) was “no effect”.

From patent US20200009173A1, “TRIAZOLE-CONTAINING MACROLIDES AND OPHTHALMIC USES THEREFOR” (Tetard, Inc., priority 2017, published 2020)
